From ChEMBL document CHEMBL5726787, “Compounds, compositions and methods” (2018)

Target: T1, Receptor-interacting serine/threonine-protein kinase 1 (Homo sapiens, UniProt Q13546)
T1 sequence (Q13546 whole entry): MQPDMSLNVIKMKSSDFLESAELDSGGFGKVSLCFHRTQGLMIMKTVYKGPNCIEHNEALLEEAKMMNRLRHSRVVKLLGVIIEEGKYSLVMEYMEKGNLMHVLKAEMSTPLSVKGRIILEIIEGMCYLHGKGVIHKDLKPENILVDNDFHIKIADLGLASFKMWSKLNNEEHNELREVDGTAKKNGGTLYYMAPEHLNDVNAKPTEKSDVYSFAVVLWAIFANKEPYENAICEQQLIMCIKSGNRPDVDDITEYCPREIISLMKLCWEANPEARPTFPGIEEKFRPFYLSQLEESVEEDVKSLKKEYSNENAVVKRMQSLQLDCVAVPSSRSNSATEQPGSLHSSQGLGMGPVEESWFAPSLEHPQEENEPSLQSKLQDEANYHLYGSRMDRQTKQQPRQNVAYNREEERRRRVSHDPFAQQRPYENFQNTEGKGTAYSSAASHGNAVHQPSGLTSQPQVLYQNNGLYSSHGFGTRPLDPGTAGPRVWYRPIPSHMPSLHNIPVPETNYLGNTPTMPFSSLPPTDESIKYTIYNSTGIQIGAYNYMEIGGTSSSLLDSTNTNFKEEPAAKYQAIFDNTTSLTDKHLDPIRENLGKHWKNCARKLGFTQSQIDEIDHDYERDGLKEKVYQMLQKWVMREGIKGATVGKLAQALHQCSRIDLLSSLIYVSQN
Assay: […]: Test compounds were diluted in DMSO and 0.1 μL of solution was dispensed to each well of a 384-well white solid microplate. The assay buffer was 50 mM HEPES pH 7.5, 50 mM NaCl, 30 mM MgCl2. The buffer was supplemented with 0.02% CHAPS, 0.01% of Pluronic F127, 0.1 mg/mL BSA and 1 mM DTT. MnCl2, 5 mM, was included in the assay buffer on the day of the experiment. […] 5 μL of enzyme and 5 μL of ATP were added to the plate at twice the final assay concentration and incubated at room temperature for 3 hours. Following this reaction, 10 μL of ADP-Glo reagent (Promega) was added to each well and incubated for 40 min at room temperature. This stops the kinase reaction and depletes any remaining ATP. 20 μL of ADP-Glo detection reagent was then added to each well and incubated at room temperature for at least 15 minutes. The detection reagent converts ADP to ATP and introduces luciferase and luciferin to detect ATP. The luminescence is then measured with the Envision (PerkinElmer) plate reader. Test compound inhibition was expressed as percent inhibition of internal assay controls. For concentration response curves, normalized data is fit and IC50 determined using XL-fit (IDBS) for Excel. The IC50 were averaged to determine a mean value, for a minimum of two independent experiments.

For `CN1C(=O)C(NC(=O)c2nnc(Cc3ccccc3)[nH]2)C[C@@H](F)c2ccccc21` (some centres not stated), the IC50 was 0.1 to 1000 nM.

`CN1C(=O)C(NC(=O)c2nnc(Cc3ccccc3)[nH]2)C[C@H](F)c2ccccc21` (some centres not stated) showed an IC50 of 0.1 to 1000 nM.
